# Assay results as given in ChEMBL document CHEMBL4808171, “Structure-Activity Relationship Study and Biological Evaluation of 2-(Disubstituted phenyl)-indole-5-propanoic Acid Derivatives as GPR40 Full Agonists” (J Med Chem, 2021).
# Calls of active or inactive are those of the source. The rule behind the calls is not given here.
# Assays:
# [1] = target: T1, Free fatty acid receptor 4 (Homo sapiens, UniProt Q5NUL3); assay: Agonist activity at FFAR4 (unknown origin); assay type: functional
# T1 sequence (Q5NUL3 whole entry): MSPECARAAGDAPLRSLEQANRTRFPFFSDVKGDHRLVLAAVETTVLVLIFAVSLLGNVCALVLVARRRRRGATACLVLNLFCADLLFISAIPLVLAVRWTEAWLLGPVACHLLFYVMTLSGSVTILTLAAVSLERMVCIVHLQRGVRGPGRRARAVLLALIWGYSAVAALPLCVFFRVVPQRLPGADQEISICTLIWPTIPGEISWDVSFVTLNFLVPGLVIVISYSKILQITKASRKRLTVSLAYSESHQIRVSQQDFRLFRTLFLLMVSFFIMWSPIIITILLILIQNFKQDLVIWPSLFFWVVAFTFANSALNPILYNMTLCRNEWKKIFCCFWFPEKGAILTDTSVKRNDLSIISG
# [2] = test system: MIN6; assay: Effect on BSA-PA conjugate-induced lipo-toxicity in mouse MIN6 cells assessed as caspase 3/7 activity at 50 uM incubated for 72 hrs by fluorescence assay; assay type: functional, cell-based
# [3] = Clast in CD-1 mouse at 10 mg/kg, po measured up to 8 hrs by LC-MS/MS analysis; assay type: ADME, organism-based; details: in vivo, read-out: Clast
# [4] = AUC (0 to t) in CD-1 mouse at 30 mg/kg, po measured up to 8 hrs by LC-MS/MS analysis; assay type: ADME, organism-based; parameters: route oral, dose 30 mg/kg, time <=8; details: in vivo
# [5] = target: T2, Free fatty acid receptor 2 (Homo sapiens, UniProt O15552); assay: Agonist activity at FFAR2 (unknown origin); assay type: functional
# T2 sequence (O15552 whole entry): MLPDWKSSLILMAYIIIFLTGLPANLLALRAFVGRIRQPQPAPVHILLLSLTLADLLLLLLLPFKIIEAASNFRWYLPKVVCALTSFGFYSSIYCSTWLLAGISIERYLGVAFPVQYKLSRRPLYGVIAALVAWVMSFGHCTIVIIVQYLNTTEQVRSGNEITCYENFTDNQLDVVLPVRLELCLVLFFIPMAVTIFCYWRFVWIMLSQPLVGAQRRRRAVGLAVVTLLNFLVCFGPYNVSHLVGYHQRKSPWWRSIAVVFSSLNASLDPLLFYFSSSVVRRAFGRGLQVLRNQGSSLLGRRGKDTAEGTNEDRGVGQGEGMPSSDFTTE
# [6] = Tlast in CD-1 mouse at 90 mg/kg, po measured up to 8 hrs by LC-MS/MS analysis; assay type: ADME, organism-based; details: in vivo
# [7] = target: Free fatty acid receptor 1 (Mus musculus) (UniProt Q76JU9); assay: Agonist activity at GPR40 in mouse MIN6 cells assessed as fold increase in 17 mM glucose-mediated insulin secretion at 1 to 10 uM incubated for 2 hrs by ELISA relative to control; assay type: functional, cell-based; details: filed as positive allosteric modulator, dose 1-10 µM
# Sequence of Free fatty acid receptor 1 (Mus musculus) (Q76JU9 whole entry): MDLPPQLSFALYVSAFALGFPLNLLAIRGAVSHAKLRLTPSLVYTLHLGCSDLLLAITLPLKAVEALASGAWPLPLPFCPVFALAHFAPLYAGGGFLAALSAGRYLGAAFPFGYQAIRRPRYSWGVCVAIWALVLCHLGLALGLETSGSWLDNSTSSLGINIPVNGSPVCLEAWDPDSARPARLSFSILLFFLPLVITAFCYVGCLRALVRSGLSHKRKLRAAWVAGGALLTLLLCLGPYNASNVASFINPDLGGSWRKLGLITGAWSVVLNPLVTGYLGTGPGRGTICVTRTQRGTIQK
# [8] = Half life in CD-1 mouse at 30 mg/kg, po measured up to 8 hrs by LC-MS/MS analysis; assay type: ADME, organism-based; details: in vivo
# [9] = Tmax in CD-1 mouse at 10 mg/kg, po measured up to 8 hrs by LC-MS/MS analysis; assay type: ADME, organism-based; details: in vivo
# [10] = Tlast in CD-1 mouse at 30 mg/kg, po measured up to 8 hrs by LC-MS/MS analysis; assay type: ADME, organism-based; details: in vivo
# [11] = target: T3, Peroxisome proliferator-activated receptor gamma (Homo sapiens) (UniProt P37231); assay: Agonist activity at human PPARgamma expressed in CHO cells assessed as increase in receptor transcriptional activity at 1 uM incubated for 24 hrs by dual luciferase reporter gene assay relative to rosiglitazone; assay type: cell-based
# T3 sequence (whole entry): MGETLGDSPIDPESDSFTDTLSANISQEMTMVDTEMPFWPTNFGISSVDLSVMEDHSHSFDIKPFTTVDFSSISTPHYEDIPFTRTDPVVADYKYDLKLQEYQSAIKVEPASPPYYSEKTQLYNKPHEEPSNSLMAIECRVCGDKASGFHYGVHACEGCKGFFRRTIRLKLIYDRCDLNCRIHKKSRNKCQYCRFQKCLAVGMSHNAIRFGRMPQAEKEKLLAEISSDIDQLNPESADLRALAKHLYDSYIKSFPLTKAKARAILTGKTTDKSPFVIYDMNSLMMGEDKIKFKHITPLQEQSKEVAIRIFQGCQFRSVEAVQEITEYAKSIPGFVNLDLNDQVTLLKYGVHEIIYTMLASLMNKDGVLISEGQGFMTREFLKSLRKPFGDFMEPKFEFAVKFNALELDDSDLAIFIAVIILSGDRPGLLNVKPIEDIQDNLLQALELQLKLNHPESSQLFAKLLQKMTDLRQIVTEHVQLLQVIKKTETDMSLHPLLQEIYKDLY
# [12] = target: Free fatty acid receptor 1 (Homo sapiens, UniProt O14842); assay: Agonist activity at GPR40 (unknown origin) expressed in CHO cells assessed as increase in cAMP level incubated for 30 mins by cAMP-Glo assay; assay type: functional, cell-based
# Sequence of Free fatty acid receptor 1 (O14842 whole entry): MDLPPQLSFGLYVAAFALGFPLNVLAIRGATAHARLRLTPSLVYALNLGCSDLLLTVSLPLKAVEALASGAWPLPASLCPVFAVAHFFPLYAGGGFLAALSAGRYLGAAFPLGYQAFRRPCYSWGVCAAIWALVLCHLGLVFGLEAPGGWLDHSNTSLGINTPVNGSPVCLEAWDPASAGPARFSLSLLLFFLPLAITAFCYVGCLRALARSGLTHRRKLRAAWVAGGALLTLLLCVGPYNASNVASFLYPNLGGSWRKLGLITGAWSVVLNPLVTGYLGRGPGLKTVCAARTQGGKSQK
# [13] = Tmax in CD-1 mouse at 100 mg/kg, po measured up to 8 hrs by LC-MS/MS analysis; assay type: ADME, organism-based; details: in vivo
# [14] = test system: MIN6; assay: Cytotoxicity in mouse MIN6 cells assessed as caspase 3/7 activity at 100 uM incubated for 72 hrs by fluorescence assay; assay type: cell-based; details: min6, 72 h
# [15] = test system: Mus musculus; assay: Antidiabetic activity in C57BL/6J mouse assessed as increase in plasma GLP1 level at 30 mg/kg, po measured after 30 mins by ELISA relative control; assay type: functional, organism-based
# [16] = test system: Mus musculus; assay: Antidiabetic activity in C57BL/6J mouse assessed as increase in plasma GLP1 level at 30 mg/kg, po measured after 30 mins in presence of KR-62436 by ELISA relative to KR-62436 treated control; assay type: functional; details: 0.5 h
# [17] = test system: Mus musculus; assay: Antidiabetic activity in db/db mouse assessed as reduction in plasma glucose level at 30 mg/kg, po pretreated 1 hr before glucose challenge measured up to 120 mins by Oral glucose tolerance test; assay type: functional, organism-based
EC50 [1] [µM],concentration at 8 h [3] [ng/mL],AUC(0-t) at 8 h [4] [ng·h/mL],EC50 [5] [µM],Tlast [6] [h],fold change (FC) [7],half-life [8] [min],Tmax [9] [min],Tlast [10] [h],Emax [11] [%],EC50 [12] [µM],Tmax [13] [min],Compound,Activity [2],Activity [14],Activity [15],Activity [16] [%],Activity [17]
> 25,11,38700,> 25,8,1.16,69.6,33,8,32.5,0.681,26.4,Cc1cc(F)ccc1-c1cc2cc(CCC(=O)O)ccc2[nH]1,inactive,Non-Toxic,,,
14.8,1250,33600,> 25,8,,79.8,19.8,8,,7.53,26.4,Cc1ccc(C)c(-c2cc3cc(CCC(=O)O)ccc3[nH]2)c1,inactive,Non-Toxic,Active,163,Active
